Structure (SMILES)	melting point [°C]
NCc1nnc2n1-c1ccc(Cl)cc1C(c1ccccc1F)=CC2	188 to 190
NC1=NC(c2ccc(OC(F)(F)F)cc2)(c2cccc(-c3cccnc3F)c2)C2=NCCCCN12 (stereo not drawn)	88 to 97
CC1(C)OC(=S)Nc2ccc(-c3cc(Cl)cc(C#N)c3)cc21	249 to 251
COCC1CN(c2cc3c(cc2F)c(=O)c(C(=O)O)cn3C2CC2)CCN1 (stereo not drawn)	215 to 216
Cc1[nH]c2ncnc(Nc3cccc(Br)c3)c2c1C	243 to 244
COc1nc(OC)nc(N(C(=O)Oc2ccccc2)C(=O)Oc2ccccc2)n1	125
CC1CCN(Cc2cccc(OCCCNc3nc(N)nn3C)c2)CC1	133 to 134
Cc1cc(C)cc(-c2cn(C)cc(-c3cccc(C(F)(F)F)c3)c2=O)c1	160 to 163
O=C(CN1CCN(c2ccccc2F)CC1)Nc1ccc2c(c1NC(=O)c1ccccc1)C(=O)c1ccccc1C2=O	228 to 229
CCCCCCCCCCCCCCCCCNC(=O)OCCSCCOC(=O)N(Cc1ccccn1)C(C)=O	62 to 63
COCOc1cc(Cl)c(Br)cc1C(=O)c1ncccc1OCOC	70 to 72
O=C(Nc1ccc([N+](=O)[O-])cc1O)OCc1ccccc1	200
NS(=O)(=O)c1cc2c(cc1Cl)C(O)N(C1CCN(Cc3cccc(C(F)(F)F)c3)CC1)C2=O (stereo not drawn)	204 to 205
COCCOc1ccc(CCC(=O)N(CCOC)S(N)(=O)=O)c(Oc2ncc(C(F)(F)F)cc2Cl)c1	101
COC(=O)c1cc(OC(C)=O)c2cc(Br)ccc2c1C	78
CC1=C(C(=O)OC(C)(C)C)C(c2ccc(Br)cc2F)C(C(=O)OC(C)(C)C)=C(C)N1	187 to 188
COc1ccc(Cc2cnc(NCCSCc3csc(CN(C)C)n3)[nH]c2=O)cn1	137 to 138
c1ccc(COc2cccc(CCCn3ccnc3)c2)cc1	82 to 83
CC(NC(=O)OC(C)(C)C)C(=O)Nc1cc(CO)cc(Nc2c3ccccc3nc3ccccc23)c1 (stereo not drawn)	131 to 133
Cc1c(NC(=O)OC(C)(C)C)cc2c(c1C)OC(C)(C)C2=O	154 to 155
CS(=O)(=O)N1CCC(C=O)CC1	97
Cc1cn(NC(=O)c2ccccc2C(=O)O)c2ccccc12	191 to 193
O=[N+]([O-])c1c(NCCCO)cc(NCCCO)cc1NCCCO	150
CCOC(=O)C[C@@H]1CCC/C1=C\Cc1c(O)c2c(c(C)c1CC)COC2=O	95 to 95.7
COC1(c2cc(F)cc(Sc3ccc(C(C)=O)cc3)c2)CCOCC1	141

Structure (SMILES)	melting point [°C]
O=[N+]([O-])c1c(-c2ccccc2)nn(CCCn2nc(-c3ccccc3)c([N+](=O)[O-])c2NCc2ccccc2)c1NCc1ccccc1	142 to 144
COc1ccc(C(=O)Nc2ccc(OCc3ccccc3)cc2N)cc1C12CC3CC(CC(C3)C1)C2	185
Cc1onc(-c2c(Cl)cccc2Cl)c1CN1C(=O)C2(COc3cc4c(cc32)OCO4)c2ccccc21 (stereo not drawn)	190 to 192
CCCCCCCCCCCCCCOc1cccc(CC(=O)Nc2cccc(CBr)c2)c1	104 to 106
COc1cccc(OC)c1C=CC(=O)c1c(OC)cccc1OC	179 to 180
COC(=O)C1=C(C)NC(C)=C(C(=O)OCCCC#N)C1c1ccccc1[N+](=O)[O-] (stereo not drawn)	48 to 51
COc1c(N2CC(F)[C@](C)(N)C2)c(F)cc2c(=O)c(C(=O)O)cn([C@@H]3C[C@@H]3F)c12 (stereo partly drawn)	160 to 163
Cc1cc(C)c2ncc(Br)n2n1	137 to 139
COC(=O)C1=C(C)NC(C)=C(C(=O)OC)C1C1CCC(C(=O)OC)C1 (stereo not drawn)	144 to 145
CN1C[C@]2(C)CC[C@](NCC(=O)N3C[C@@H](F)C[C@H]3C#N)(C1)C2(C)C	122 to 126
CCOC(=O)CCCCCOc1c(/C=C/C(=O)CCc2ccccc2)occc1=O	38.5 to 40
Cc1cnc(C)c(Oc2ccc(OCn3cnc(Cl)c3Cl)cc2)n1	84 to 85
CCCCC(Cc1ccc(OCCNC(=O)c2ccc(-c3cccc(CN(C)C)c3)cc2)cc1)C(=O)O (stereo not drawn)	95 to 97
CNC(=O)C1=CC(CF)(CF)Oc2ccc(C(F)(F)F)cc21	162 to 164
CN(C(=O)COc1ccccc1)c1ccc(OC23CC4CC(CC(C4)C2)C3)cc1	89 to 91
CCCCc1nc2c(N)nc3ccccc3c2n1CCCC(=O)c1ccccc1	178 to 180
CS(=O)(=O)Nc1c(-c2cc(Cl)ccc2O)c2cc(C(F)(F)F)ccc2[nH]c1=O	263 to 265
Cc1c(S(=O)(=O)N(C)C)c(=O)c2ccc(F)cc2n1C	244 to 248
CCNC(=O)Nc1nccc(-c2ccncc2)n1	204 to 207
COc1cc(N)c(Cl)cc1C(=O)NCCN(C)C1CC1	164 to 165
CN(C)C1CCC(Nc2nc3cc(Cl)c(Cl)cc3nc2-c2ccncc2)CC1 (stereo not drawn)	183 to 185
CN1CCCCC1CCc1ccccc1NC(=O)c1ccccc1C(=O)O (stereo not drawn)	171 to 172
CCCCCCCN(CCN1CCN(CCSc2nc3cccc(C(=O)OC)c3o2)CC1)C(=O)Nc1c(C(C)C)cccc1C(C)C	125 to 126
O=C(CC1C2=C(CCCC2)C(=O)N1c1ccc(Cl)cc1)N1CCCCC1 (stereo not drawn)	120 to 122
CC(C)(Oc1ccc(CC(=O)Nc2ccc(F)cc2)cc1)C(=O)O	198

Structure (SMILES)	melting point [°C]
C[Si](C)(C)O[C@@H]1C(=O)N[C@@H]1c1ccccc1 (relative stereo)	118 to 120
Cc1nc(Cl)c2ccccc2c1CC(=O)O	180 to 183
COc1ccc(-c2cc(O)n3nccc3n2)cc1OC	268 to 270
CN1CCC(C(=O)N(C)C)C(c2cccc(F)c2)C1 (stereo not drawn)	101
CCOC(=O)C1=Cc2cc(Cl)cc(-c3nc4ccccc4[nH]3)c2OC1C(F)(F)F (stereo not drawn)	> 300
O=[N+]([O-])c1ccc(C=Cc2ccc(OCCCCCCO)cc2)cc1	118
COc1ccc(CNC(=O)c2cc3c(=O)n(CC#N)c(=O)n(C)c3s2)cc1	180 to 183
CC1(C)CCc2c(N3CCSCC3)nc3sc4c(NCc5cccnc5)ncnc4c3c2C1	257 to 258
O=C(CCc1cccc2[nH]ccc12)c1ccccc1O	143
Cn1c(C(F)(F)F)cc(=O)n(-c2cc(N(S(C)(=O)=O)S(C)(=O)=O)c(Cl)cc2F)c1=O	282 to 285
CC1(C)CC(=O)c2c(-c3cncs3)cn(-c3ccccn3)c2C1	167 to 169
O=C(O)C(Cl)(Cl)CCCCCCCCCCOc1ccc(Cl)cc1	63 to 64
CS(=O)(=O)Nc1cc(-c2nc3ccccn3c2Br)c(F)cc1F	202
CC12CCC3c4ccc(O)cc4CCC3C1CCC2=CF (stereo not drawn)	125 to 129
COC(=O)C1=C(C)Nc2nccn2C1c1cccc(N)c1 (stereo not drawn)	224 to 225
CSc1nc(-c2ccc(S(C)(=O)=O)cc2)n(-c2ccc(C(C)C)cc2)c(=O)c1C#N	211 to 212
CC12CCC3c4cc(OCC(F)(F)F)c(O)cc4CCC3C1CCC2O (stereo not drawn)	167 to 168
COC(=O)CCSCC(=O)c1cc2c(cc1Cl)NC(=O)C2	75 to 77
Cc1c(C)c2c(c(C)c1N)OC(C)(C)C2Cc1ccccc1 (stereo not drawn)	75 to 76
CC(C)c1nn(-c2ncc(C(F)(F)F)cn2)cc1CCCO	98 to 99
C#CC(O)c1ncn(C(c2ccccc2)(c2ccccc2)c2ccccc2)n1 (stereo not drawn)	138 to 139
c1ccc(C2COc3ccccc3C2)cc1 (stereo not drawn)	54 to 56
O=C(CBr)OCCCCOC(=O)CBr	62 to 62.5
O=c1cc(-c2cccc(F)c2)oc2ccc(OCCCCCCN3CCC(O)CC3)cc12	136 to 137
CCc1ccc2c(O)c(C(=O)O)cnc2c1	175 to 178

Structure (SMILES)	melting point [°C]
COc1ccc(C(=O)Nc2ccc(C)c(C)c2)cc1N	138 to 142
Oc1ncnc2c1CCOc1ccccc1-2	241 to 243
Cc1cc(C2(C(F)(F)F)CC(c3ccc(F)cc3)=NO2)ccc1N (stereo not drawn)	108 to 110
O=C1CCCC2(c3ccccc3)NCCCN12 (stereo not drawn)	120
CC(C)(C)N1CCN(c2cc3c(cc2F)c(=O)c(C(=O)O)cn3C(C)(C)C)CC1	> 270
O=C(CCCCl)Nc1n[nH]c2cc(Cl)ccc12	220
COc1cc(O)c(C(=O)C=Cc2ccc(C)o2)c(OC)c1	103
CC1NC(=O)NN=C1c1ccc(NCc2cccnc2)cc1 (stereo not drawn)	254 to 256
O=C(c1ccc(-c2ccn(C(=O)C3CC3)n2)cc1)N1Cc2cccn2Cc2ccccc21	197 to 199
CC(C)(C)Sc1ccc(Cn2c(CC(C)(C)C(=O)O)c(SC(C)(C)C)c3cc(OCc4ccc5ccccc5n4)ccc32)cc1	172 to 173
O=C(CCOc1cccc(CN2CCCCC2)c1)Nc1cccnc1	92 to 96
CCCCCCCCCCCCCCOCc1ccc(C(C)=O)o1	61 to 62
COC(=O)c1c(Cl)cc(Cl)c2cc(Cl)ccc12	110 to 112
CCOC(=O)Cn1c(N)nc(-c2ccccc2)c1-c1ccccc1	173 to 175
CCCCN1CCC(O)(c2cccn2Cc2ccccc2F)CC1	132 to 135
CCS(=O)(=O)N(C(C)=O)c1cc(-n2nc3ccc(Cl)cn3c2=O)c(F)cc1C#N	220 to 222
COc1ccc(C2=NN(C3CCCC3)C(=O)[C@H]3CC=CC[C@@H]23)cc1OC1CCCC1 (relative stereo)	144 to 145
CC(=O)Nc1nc(CCc2ccc(NC(=NC(=O)OC(C)(C)C)NC(=O)OC(C)(C)C)cc2)c(C(=O)O)s1	222 to 223
CC(=O)c1cc2cc(O)c(Cl)c(Cl)c2s1	199 to 201
CC(C)c1nc(CCOC2=CCCCCCCCCCC2)n(C)c1Sc1cc(Cl)cc(Cl)c1	96 to 102
N#CC(NC(=O)c1ccnc(Cl)c1)c1cccs1 (stereo not drawn)	123 to 125
CN(C)c1ccc(-c2cc(N)n[nH]2)cc1	169 to 170
CNCC1Cc2cc(-c3ccccc3)cc(-c3ccc(F)cc3)c2O1 (stereo not drawn)	> 250

Reference: a melting point compilation (Tetko et al.; mined from patent text by program, amines drawn as free bases though some values may be those of a salt)
